Data: ChEMBL document CHEMBL3885881, “DrugMatrix”

Species: Rattus norvegicus
Test: DrugMatrix - Regimen: Daily Repeat
Type: toxicity, organism-based, Sprague-Dawley
Parameters: regimen Daily Repeat, gender Male, age 6-8 weeks
Conditions: in vivo, po, route oral GAVAGE, vehicle 100 % WATER; for ABSOLUTE BASOPHIL / ABSOLUTE EOSINOPHIL / ABSOLUTE LYMPHOCYTE / ABSOLUTE MONOCYTE / ABSOLUTE SEGMENTED NEUTROPHIL / BASOPHIL / EOSINOPHIL / ERYTHROCYTE COUNT / HEMATOCRIT / HEMOGLOBIN / LEUKOCYTE COUNT / LYMPHOCYTE / MEAN CORPUSCULAR HEMOGLOBIN / MEAN CORPUSCULAR HEMOGLOBIN CONCENTRATION / MEAN CORPUSCULAR VOLUME / MONOCYTE / NEUTROPHIL / NUCLEATED RED BLOOD CELLS / PLATELET COUNT: tissue Blood; for ALANINE AMINOTRANSFERASE / ALKALINE PHOSPHATASE / ASPARTATE AMINOTRANSFERASE / BLOOD UREA NITROGEN / CARBON DIOXIDE / CHLORIDE / CHOLESTEROL / CREATINE PHOSPHOKINASE / CREATININE / GLUCOSE / LACTATE DEHYDROGENASE / LIPASE / PHOSPHORUS / POTASSIUM / SODIUM / TOTAL BILIRUBIN / TOTAL PROTEIN / URIC ACID: tissue Plasma
[1] = 0 mg/kg, 72 h, dose level Control, time 3 day
[2] = 0 mg/kg, 120 h, dose level Control, time 5 day
[3] = 22 mg/kg, 72 h, dose level Low, time 3 day

SMILES: COc1ccc(C(CN(C)C)C2(O)CCCCC2)cc1 (stereo unspecified) [VENLAFAXINE]
- ABSOLUTE BASOPHIL [1]: 0 CELLS/uL
- ABSOLUTE EOSINOPHIL [1]: 102 CELLS/uL
- ABSOLUTE LYMPHOCYTE [1]: 12758 CELLS/uL
- ABSOLUTE MONOCYTE [1]: 197.17 CELLS/uL
- ABSOLUTE SEGMENTED NEUTROPHIL [1]: 1259.5 CELLS/uL
- BASOPHIL [1]: 0%
- EOSINOPHIL [1]: 0.83%
- ERYTHROCYTE COUNT [1]: 5.3 x10E6/uL
- HEMATOCRIT [1]: 33.47%
- HEMOGLOBIN [1]: 13.12 G/DL
- LEUKOCYTE COUNT [1]: 14.32 x10E3/uL
- LYMPHOCYTE [1]: 89.33%
- MEAN CORPUSCULAR HEMOGLOBIN [1]: 24.8 pg
- MEAN CORPUSCULAR HEMOGLOBIN CONCENTRATION [1]: 39.18 G/DL
- MEAN CORPUSCULAR VOLUME [1]: 63.25 fL
- MONOCYTE [1]: 1.33%
- NEUTROPHIL [1]: 8.5%
- NUCLEATED RED BLOOD CELLS [1]: 0 /100WBC
- PLATELET COUNT [1]: 1313.17 x10E3/uL
- ALANINE AMINOTRANSFERASE [1]: 52.67 u/L
- ALKALINE PHOSPHATASE [1]: 372 u/L
- ASPARTATE AMINOTRANSFERASE [1]: 82.83 u/L
- BLOOD UREA NITROGEN [1]: 15 mg/dL
- CARBON DIOXIDE [1]: 25.67 mmol/L
- CHLORIDE [1]: 102.17 MEQ/L
- CHOLESTEROL [1]: 68.83 mg/dL
- CREATINE PHOSPHOKINASE [1]: 285 u/L
- CREATININE [1]: 0.18 mg/dL
- GLUCOSE [1]: 149.17 mg/dL
- LACTATE DEHYDROGENASE [1]: 263.83 u/L
- LIPASE [1]: 10.17 u/L
- PHOSPHORUS [1]: 12.58 mg/dL
- POTASSIUM [1]: 6.58 MEQ/L
- SODIUM [1]: 144.22 MEQ/L
- TOTAL BILIRUBIN [1]: 0.22 mg/dL
- TOTAL PROTEIN [1]: 5.83 G/DL
- URIC ACID [1]: 1.58 mg/dL
- ABSOLUTE BASOPHIL [2]: 0 CELLS/uL
- ABSOLUTE EOSINOPHIL [2]: 24 CELLS/uL
- ABSOLUTE LYMPHOCYTE [2]: 11134.17 CELLS/uL
- ABSOLUTE MONOCYTE [2]: 56.33 CELLS/uL
- ABSOLUTE SEGMENTED NEUTROPHIL [2]: 1235.5 CELLS/uL
- BASOPHIL [2]: 0%
- EOSINOPHIL [2]: 0.17%
- ERYTHROCYTE COUNT [2]: 5.68 x10E6/uL
- HEMATOCRIT [2]: 35.72%
- HEMOGLOBIN [2]: 13.93 G/DL
- LEUKOCYTE COUNT [2]: 12.45 x10E3/uL
- LYMPHOCYTE [2]: 89.5%
- MEAN CORPUSCULAR HEMOGLOBIN [2]: 24.63 pg
- MEAN CORPUSCULAR HEMOGLOBIN CONCENTRATION [2]: 39.13 G/DL
- MEAN CORPUSCULAR VOLUME [2]: 62.97 fL
- MONOCYTE [2]: 0.5%
- NEUTROPHIL [2]: 9.83%
- NUCLEATED RED BLOOD CELLS [2]: 0 /100WBC
- PLATELET COUNT [2]: 1204 x10E3/uL
- ALANINE AMINOTRANSFERASE [2]: 59.5 u/L
- ALKALINE PHOSPHATASE [2]: 415.67 u/L
- ASPARTATE AMINOTRANSFERASE [2]: 91.33 u/L
- BLOOD UREA NITROGEN [2]: 17 mg/dL
- CARBON DIOXIDE [2]: 26.33 mmol/L
- CHLORIDE [2]: 104.17 MEQ/L
- CHOLESTEROL [2]: 77 mg/dL
- CREATINE PHOSPHOKINASE [2]: 249.67 u/L
- CREATININE [2]: 0.21 mg/dL
- GLUCOSE [2]: 148.33 mg/dL
- LACTATE DEHYDROGENASE [2]: 168.5 u/L
- LIPASE [2]: 10.17 u/L
- PHOSPHORUS [2]: 12.92 mg/dL
- POTASSIUM [2]: 7.09 MEQ/L
- SODIUM [2]: 148.37 MEQ/L
- TOTAL BILIRUBIN [2]: 0.23 mg/dL
- TOTAL PROTEIN [2]: 6.3 G/DL
- URIC ACID [2]: 1.77 mg/dL
- ABSOLUTE BASOPHIL [3]: 0 CELLS/uL
- ABSOLUTE EOSINOPHIL [3]: 59.67 CELLS/uL
- ABSOLUTE LYMPHOCYTE [3]: 13145.33 CELLS/uL
- ABSOLUTE MONOCYTE [3]: 145.33 CELLS/uL
- ABSOLUTE SEGMENTED NEUTROPHIL [3]: 1183 CELLS/uL
- BASOPHIL [3]: 0%
- EOSINOPHIL [3]: 0.33%
- ERYTHROCYTE COUNT [3]: 5.58 x10E6/uL
- HEMATOCRIT [3]: 35.93%
- HEMOGLOBIN [3]: 14.03 G/DL
- LEUKOCYTE COUNT [3]: 14.53 x10E3/uL
- LYMPHOCYTE [3]: 90.67%
- MEAN CORPUSCULAR HEMOGLOBIN [3]: 25.13 pg
- MEAN CORPUSCULAR HEMOGLOBIN CONCENTRATION [3]: 39.1 G/DL
- MEAN CORPUSCULAR VOLUME [3]: 64.33 fL
- MONOCYTE [3]: 1%
- NEUTROPHIL [3]: 8%
- NUCLEATED RED BLOOD CELLS [3]: 0 /100WBC
- PLATELET COUNT [3]: 1219 x10E3/uL
- ALANINE AMINOTRANSFERASE [3]: 59.67 u/L
- ALKALINE PHOSPHATASE [3]: 338 u/L
- ASPARTATE AMINOTRANSFERASE [3]: 94.33 u/L
- BLOOD UREA NITROGEN [3]: 15.67 mg/dL
- CARBON DIOXIDE [3]: 24.33 mmol/L
- CHLORIDE [3]: 103.67 MEQ/L
- CHOLESTEROL [3]: 73.67 mg/dL
- CREATINE PHOSPHOKINASE [3]: 320.67 u/L
- CREATININE [3]: 0.17 mg/dL
- GLUCOSE [3]: 162 mg/dL
- LACTATE DEHYDROGENASE [3]: 412.33 u/L
- LIPASE [3]: 11.33 u/L
- PHOSPHORUS [3]: 13.2 mg/dL
- POTASSIUM [3]: 6.69 MEQ/L
- SODIUM [3]: 146.03 MEQ/L
- TOTAL BILIRUBIN [3]: 0.13 mg/dL
- TOTAL PROTEIN [3]: 6.2 G/DL
- URIC ACID [3]: 2.33 mg/dL
